# Measurements reported in patent US4904697A, “Controlling the growth of certain tumor tissue with chalcone derivatives” (Merrell Dow Pharmaceuticals Inc., priority 1987, dated 1990).
# Read-outs that look alike come from different tables or passages of the source.
# Key:
# [1] = tested on: Human Choriotrophoblast Tumor (JAr); assay: Growth of human choriotrophoblast tumor (JAr) in athymic mice; assay type: in vivo
# Source text: (§1) The effect of a chalcone derivative of structure 1 to control the growth of tumor tissue can be assessed in standard animal tumor models, for example, in the following animal tumor modes: (a) L1210 leukemia in mice, (b) EMT6 tumor in Balb/C mice, (c) 7,12-dimethylbenzanthracene-induced (DMBA-induced) mammary tumor in rats, and (d) Morris 7288C or 5123 hepatoma in Buffalo rats.
# (D) Effect of α-methyl-4-Dimethylamino-2',5'-
# dimethoxychalcone On the Growth of Human
# Choriotrophoblast Tumor (JAr) In Athymic Mice
# JAr cells (1.5 × 10^6 cells/animal) were injected (s.c.) on day
# zero. The compound, 4dimethylamino-2',5dimethoxychalcone, was suspended i
# 5 per cent polyvinylpyrrolidone (PVP) and administered (i.p.) once daily
# as indicated. At the end of 12 days the animals were sacrificed, tumors
# L1210 Leukemia = assay: Survival of L1210 leukemia in mice; assay type: in vivo
# Source text: as §1
# (C) Effect of α-methyl-4-Dimethylamino-2',5'-dimethoxychalcone
# and Other Mitotic Inhibitors on the Survival of L1210 Leukemia in
# 1 × 10^5 leukemic cells/animal were inoculated (i.p.) on day
# zero. The compounds were suspended or dissolved in 5% polyvinylpyrrolidon
# (PVP) and administered once daily from day 1-9 (i.p.). The survival of th
# animals was noted and average survival was determined.
# B16 Melanoma [2] = assay: Survival of B16 melanoma bearing mice; assay type: in vivo
# Source text: as §1
# (§2) (B) Effect of α-methyl-4-Dimethylamino-2',5'-dimethoxychalcone On
# (§3) the Growth and Survival of B16 Melanoma Bearing Mice
# (§4) 1 × 10^5 B16 melanoma cells/animal were injected (s.c.) or
# (§5) (i.p.)? on day 0. Compounds suspended in 5 percent polyvinylpyrrolidone
# (§6) (PVP) were administered once daily (i.p. ) from day 1-15. For tumor growt
# and weighed. For survival studies the survival days of each animal was
# noted and average survival was determined.
# HeLa cells [3] = assay: Mitotic accumulation (mitotic arrest) of HeLa cells; assay type: cell-based; conditions: Homo sapiens, read-out: MITOTIC ARREST Minimum Effectice Concentration
# Description: Exponentially growing human carcinoma (HeLa) cells are plated at a densit
# of 1 × 10^4 cells/well in a 24 well plate. The compounds were
# dissolved in dimethylsulfoxide and diluted with complete medium. The cell
# were innoculated with the medium containing the test compound either for
# hours or 1 hour. For the 1 hour test, the cells were washed twice and
# further grown for 18 hours in the presence of drug free medium. The
# mitotic cells in the supernatent were collected and were pooled with the
# trypsinized cells and cytopreps were made on slides using a
# cytocentrifuge. The slides were fixed with Carnoy's solution, stained wit
# acetoorcein, and the mitotic index was determined.
# B16 Melanoma [4] = assay: Growth of B16 melanoma in mice (tumor weight); assay type: in vivo; conditions: for TUMOR GROWTH (Mean ± S.E., n = 10): tumors weighed day 18
# Source text: as §1, §2, §3, §4, §5, §6
# studies the animals were sacrificed on day 18, the tumors were excised,
# and weighed. For survival studies the survival days of each animal was […]
# P388 Leukemia = assay: Survival of P388 leukemia bearing mice; assay type: in vivo
# Source text: as §1
# (A) Effect of α-methyl-4-Dimethylamino-2',5'-dimethoxychalcone
# on the Survival of P388 Leukemia Bearing Mice
# 1 × 10^5 P388 leukemia cells/animal were inoculated (i.p.) on
# day zero. Compound was suspended in 5% polyvinylpyrrolidone (PVP) and was
# administered (i.p.) once daily from day 1-9. The survival of the animals
# was noted and the average survival was determined.
# [5] = Experimental Allergic Encephalomyelitis (EAE) in rats; assay type: in vivo, rats (Lewis strain); conditions: 25.0 mg/kg s.c. once every other day, day 1 through 10
# Source text: The compounds of structure 1 inhibit the destruction of myelin sheath surrounding the axons of the central nervous system. This myelin destruction is characteristic in those individuals suffering from multiple sclerosis. By preventing the destruction of myelin in multiple sclerosis patients, the compounds of structure 1 will prevent or reduce the progressive nature of the disease, prevent or increase the length of time between the recurrent episodes of the disease, and prevent or suppress the formation of the scarlike, multiple sclerotic plaques characteristic of the disease. […] This myelin brings about an immune response in the individual in which the myelin sheath is destroyed. EAE is an experimental model of multiple sclerosis.
# Effect of α-methyl-4-dimethylamino-2',5'-dimethoxychalcone on
# Experimental Allergic Encephalomyelitis (EAE) In Rats
# EAE was induced in rats as described by Rosenthal and Nagra, Proc. Soc.
# Exp. Biol. Med. 125, 149 (1967). Lewis strain rats ranging in weight from
# 100-200 g were sensitized with encephalitogenic emulsion consisting of
# homogenized spinal cord in complete Freund's adjuvant. The test compound
# and hydrocortisone (HC) were administered in polyvinylpyrrolidone vehicle
# The test compound was administered i.p. once daily from day 1 through day
# 10. […]
# 10. The incidence of paralysis was recorded and mean paralysis time was […]
# HeLa cells [6] = assay: Growth inhibition of HeLa cells; assay type: cell-based; conditions: Homo sapiens, 72 h, read-out: GROWTH INHIBITION IC50
# Description: For growth inhibition studies, exponentially growing HeLa cells were
# incubated at a density of 1 × 10^5 cells/35 mm dish with a
# number of dilutions of the test compound in the medium. The plates were
# incubated at 37° C. in a CO2 incubation. At the end of 72
# hours the cells were collected by trypinization and counted and the […]
# [7] = 25 mg/kg i.p. once daily, day 1-11
# [8] = 25 mg/kg i.p. once daily, day 7-11
# [9] = 50 mg/kg i.p. once daily, day 1-11
# [10] = 50 mg/kg i.p. once daily, day 7-11
# [11] = 6.25 mg/kg i.p. once daily day 1-9
# [12] = 12.5 mg/kg i.p. once daily day 1-9
# [13] = 25.0 mg/kg i.p. once daily day 1-9
# [14] = 50.0 mg/kg i.p. once daily day 1-9
# [15] = 12.5 mg/kg i.p. once daily day 1-15
# [16] = 25 mg/kg i.p. once daily day 1-15
# [17] = 50 mg/kg i.p. once daily day 1-15
# [18] = 25 mg/kg i.p. once daily day 1-9
# [19] = 50 mg/kg i.p. once daily day 1-9
# [20] = 0.20 mg/kg i.p. once daily day 1-9
# [21] = 0.2 mg/kg i.p. once daily day 1-15
structure (smiles),measurement,setting,value
"COc1ccc(OC)c(C(=O)C(C)=Cc2ccc(N(C)C)cc2)c1 [1-(2,5-dimethoxyphenyl)-3-[4-(dimethylamino)phenyl]-2-methyl-2-propen-1-one]",PERCENT INHIBITION (tumor weight),[1]; [7],29%
same,"TUMOR WEIGHT (Means ± S.E., n = 6)",[1]; [7],2.86 ± 0.38 g
same,PERCENT INHIBITION (tumor weight),[1]; [8],21%
same,"TUMOR WEIGHT (Means ± S.E., n = 6)",[1]; [8],3.19 ± 0.61 g
same,PERCENT INHIBITION (tumor weight),[1]; [9],65%
same,"TUMOR WEIGHT (Means ± S.E., n = 6)",[1]; [9],1.41 ± 0.32 g
same,PERCENT INHIBITION (tumor weight),[1]; [10],31%
same,"TUMOR WEIGHT (Means ± S.E., n = 6)",[1]; [10],2.70 ± 0.36 g
same,PERCENT T/C (survival),L1210 Leukemia; [11],126%
same,"SURVIVAL TIME (Mean ± S.E., n = 20)",L1210 Leukemia; [11],8.8 ± 0.2 days
same,PERCENT T/C (survival),L1210 Leukemia; [12],137%
same,"SURVIVAL TIME (Mean ± S.E., n = 20)",L1210 Leukemia; [12],9.6 ± 0.3 days
same,PERCENT T/C (survival),L1210 Leukemia; [13],146%
same,"SURVIVAL TIME (Mean ± S.E., n = 20)",L1210 Leukemia; [13],10.2 ± 0.2 days
same,PERCENT T/C (survival),L1210 Leukemia; [14],154%
same,"SURVIVAL TIME (Mean ± S.E., n = 20)",L1210 Leukemia; [14],10.8 ± 0.4 days
same,PERCENT T/C (survival),B16 Melanoma [2]; [15],146%
same,"SURVIVAL (MEAN ± S.E., n = 10)",B16 Melanoma [2]; [15],20.4 ± 1.5 days
same,PERCENT T/C (survival),B16 Melanoma [2]; [16],183%
same,"SURVIVAL (MEAN ± S.E., n = 10)",B16 Melanoma [2]; [16],25.6 ± 4.8 days
same,minimal effective concentration,"HeLa cells [3]; 1 hour, then washed and grown 18 hours in drug free medium",0.06 µg/mL
same,minimal effective concentration,HeLa cells [3]; 6 hours,0.0038 µg/mL
same,PERCENT INHIBITION (tumor growth),B16 Melanoma [4]; [15],30%
same,"TUMOR GROWTH (Mean ± S.E., n = 10)",B16 Melanoma [4]; [15],4.66 ± 0.56 g
same,PERCENT INHIBITION (tumor growth),B16 Melanoma [4]; [16],32%
same,"TUMOR GROWTH (Mean ± S.E., n = 10)",B16 Melanoma [4]; [16],4.5 ± 0.70 g
same,PERCENT INHIBITION (tumor growth),B16 Melanoma [4]; [17],45%
same,"TUMOR GROWTH (Mean ± S.E., n = 10)",B16 Melanoma [4]; [17],3.66 ± 0.83 g
same,PERCENT T/C (survival),P388 Leukemia; [18],142%
same,"SURVIVAL TIME (Mean ± S.E., n = 10)",P388 Leukemia; [18],16.0 ± 1.5 days
same,PERCENT T/C (survival),P388 Leukemia; [19],141%
same,"SURVIVAL TIME (Mean ± S.E., n = 10)",P388 Leukemia; [19],15.8 ± 0.5 days
"C[C@]12CCC(=O)C=C1CC[C@@H]1[C@@H]2[C@@H](O)C[C@@]2(C)[C@H]1CC[C@]2(O)C(=O)CO [HYDROCORTISONE, hydrocortisone]",PERCENT INCIDENCE OF PARALYSIS,[5],74%
same,PARALYSIS TIME (Mean ± S.E.),[5]; significant at p < 0.01,11.0 ± 0.28 days
"CC[C@]1(O)C[C@@H]2CN(CCc3c([nH]c4ccccc34)[C@@](C(=O)OC)(c3cc4c(cc3OC)N(C)[C@H]3[C@@](O)(C(=O)OC)[C@H](OC(C)=O)[C@]5(CC)C=CCN6CC[C@]43[C@@H]65)C2)C1 [VINBLASTINE, vinblastine, reference compound]",PERCENT T/C (survival),L1210 Leukemia; [20],140%
same,"SURVIVAL TIME (Mean ± S.E., n = 20)",L1210 Leukemia; [20],9.8 ± 0.4 days
same,PERCENT T/C (survival),B16 Melanoma [2]; [21],180%
same,"SURVIVAL (MEAN ± S.E., n = 10)",B16 Melanoma [2]; [21],25.2 ± 2.3 days
same,IC50,HeLa cells [6],0.015 µg/mL
same,minimal effective concentration,HeLa cells [3]; 6 h,0.0015 µg/mL
"CC[C@]1(O)C[C@H]2CN(CCc3c([nH]c4ccccc34)[C@@](C(=O)OC)(c3cc4c(cc3OC)N(C=O)[C@H]3[C@@](O)(C(=O)OC)[C@H](OC(C)=O)[C@]5(CC)C=CCN6CC[C@]43[C@@H]65)C2)C1 [VINCRISTINE, vincristine, reference compound]",PERCENT T/C (survival),L1210 Leukemia; [20],146%
same,"SURVIVAL TIME (Mean ± S.E., n = 20)",L1210 Leukemia; [20],10.2 ± 0.4 days
